Laboratory results from publication PMC10525924, “Engineering and Purification of Microcin C7 Variants Resistant to Trypsin and Analysis of Their Biological Activity” (Antibiotics, 2023).
≈ marks a conversion by molar mass, not a printed value. Where a SMILES comes first, the peptide text is derived from it. Where no end group is shown, it is not given here.

How the values were obtained:
[1] = test system: Yej^+rimL^− strain; test: organism not typed; type: cell-based; settings: agar diffusion; for Diameters of the inhibition zones, Trypsin-Untreated Group, Yej^+rimL^−: 200 μL fermentation supernatant, 1 × 10^5 CFU/mL, 4 °C 1 h then 37 °C 24 h, chloramphenicol 100 μL of 0.25 μg/mL; for Diameters of the inhibition zones, Trypsin-Untreated Group, Yej^+rimL^− / Diameters of the inhibition zones, Trypsin-Treated Group, Yej^+rimL^−: dash = no zone; for bacteriostatic activity after trypsin treatment, Yej^+rimL^− / Diameters of the inhibition zones, Trypsin-Treated Group, Yej^+rimL^−: supernatant treated with trypsin 50 μg/mL, 37 °C, 3 h; for Diameters of the inhibition zones, Trypsin-Treated Group, Yej^+rimL^−: pH 6.8, 37 °C 24 h
Excerpt: To analyze the antimicrobial ability of the variants, we measured the inhibition zones of all 21 variants by the agar diffusion method. The peptide moiety of McC was recognized by a YejABEf-peptide transporter. The rimL contains an acetyltransferase domain homologous to MccE which can detoxify and provide resistance to McC [17]. The overexpression of the YejABEF gene cluster and rimL gene knockout made the strain hypersensitive to McC. Therefore, the Yej^+rimL^− strain was selected as the sensitive indicator bacterial strain.
(§1) The pH was adjusted to 6.8.
(§2) The fermentation supernatants and pure products were used to characterize the bacteriostatic effects of McC variants by the agar diffusion and microdilution methods. Yej^+rimL^− and E. coli K88 indicator bacteria were applied. The serotype of E. coli K88 was O149:K91, K88ac, a clinically isolated strain, and provided by the College of Veterinary Medicine, China Agricultural University. The indicated bacteria were diluted to 1 × 10^5 CFU/mL and added to plate medium cooled to 50 °C. Two hundred microliters of supernatants were added to each dish, and diffusion was performed at 4 °C for 1 h. After incubation at 37 °C for 24 h, the diameters of the inhibition zones were determined. One hundred microliters of 0.25 μg/mL chloramphenicol was used as a control. The MICs of the pure McC variants were determined by microdilution in a sterilized 96-well microplate. The McC variants were serially diluted 2 times in 96-well microplates with LB medium. The concentrations of the McC variants ranged from 0.125 to 100 µg/mL. Each well was inoculated with 10 μL of overnight bacterial culture at a concentration of 1.0 × 10^5 CFU/mL and incubated at 37 °C for 24 h. A microplate reader was used to automatically observe changes in absorbance at 600 nm in order to monitor bacterial growth. A positive control group (including inoculated medium) and a negative control group (with medium only) were included. The MIC was determined as the lowest concentration of McC variant that inhibited bacterial growth (preventing an increase in the absorbance reading). All tests were performed in triplicate.

[2] = test system: E. coli K88; test: microbe, parasite or virus in culture; type: cell-based; settings: agar diffusion; for Diameters of the inhibition zones, Trypsin-Untreated Group, K88: 200 μL fermentation supernatant, 1 × 10^5 CFU/mL, 4 °C 1 h then 37 °C 24 h, chloramphenicol 100 μL of 0.25 μg/mL; for Diameters of the inhibition zones, Trypsin-Untreated Group, K88 / Diameters of the inhibition zones, Trypsin-Treated Group, K88: dash = no zone; for antimicrobial activity after trypsin treatment, K88 / Diameters of the inhibition zones, Trypsin-Treated Group, K88: supernatant treated with trypsin 50 μg/mL, 37 °C, 3 h; for Diameters of the inhibition zones, Trypsin-Treated Group, K88: pH 6.8, 37 °C 24 h
Description: as §1, §2

[3] = test system: Yej^+rimL^− strain; type: cell-based; settings: HPLC-purified variants; microdilution in LB, 96-well; 0.125 to 100 µg/mL; 1.0 × 10^5 CFU/mL; 37 °C 24 h; absorbance 600 nm; triplicate
Description: To accurately characterize the bacteriostatic abilities of the variants, the MICs of the pure McC variants toward the McCsensitive strain Yej^+rimL^− were determined. The MICs of all variants were lower than that of wild-type McC. From smallest to largest MIC, the above five variants were in the following order: R2A, R2T, R2Q, R2S, and R2H. […] Although the diameter of the inhibitory zone of R2M was smaller than those of the above five variants, the bacteriostatic ability of R2M was second only to R2T/R2Q, and the MIC was 50 μg/mL.
as §2

[4] = Remaining amount by RP-HPLC after pepsin treatment; type: in vitro ADME; settings: isolated enzyme pepsin; pepsin treated for 3 h; read-out RP-HPLC; Table S2
Description: (§3) To test whether the variants were tolerant to trypsin or other digestive enzymes, the amount of the remaining McC and its analogues remaining was determined by RP-HPLC after trypsin, pepsin, and chymotrypsin treated for 3 h (Table S2), and the inhibition zones of trypsin-treated variants were tested using the same method (Table 2).

[5] = HPLC retention time according to hydrophobicity; type: physicochemical; settings: chromatographic, C18 5 μm 9.4 × 250 mm; A 0.1% trichloroacetic acid, B 0.1% trichloroacetic acid with 90% acetonitrile; linear 5% B to 50% B; 1 mL/min; 35 °C; 280 nm; varies according to hydrophobicity
Description: To find the separation peaks of the variants, wildtype McC and blank control fermentation broth samples were tested by HPLC. The separation peaks with obvious differences (those with retention times of 11 min and 17 min) were purified and the antimicrobial activity was determined. […] Therefore, the molecular weight was further analyzed by mass spectrometry, and the separation peak at approximately 17 min was confirmed to be that of the desired purified McC. Since the mutations in this study involved only one amino acid and had few effects on the properties of the peptides, we predicted that the separation peaks of the variants should fluctuate around approximately 17 min according to their hydrophobicity. […] The purity of the purified variants was determined by HPLC to be greater than 80% (Table 3).
The lyophilized supernatants were dissolved in deionized water, filtered through 0.22 μm aqueous-phase filter membranes, and purified by high-performance liquid chromatography (HPLC, Agilent Technologies Inc., Palo Alto, CA, USA) with C18 column (5 μm 9.4 × 250 mm, Agilent Technologies Inc., Palo Alto, CA, USA). The mobile phase was composed of 0.1% (v/v) trichloroacetic acid (solvent A) and 0.1% (v/v) trichloroacetic acid with 90% (v/v) acetonitrile (solvent B). A linear gradient from 95% A/5% B to 50% A/50% B was used with a flow rate of 1 mL/min, a sample volume of 10 μL, a column temperature of 35 °C, and a detection wavelength of 280 nm. Electrospray ionization mass spectrometry (ESI-MS) was used to compare the McC variant masses with the expected masses. The relationships between the relative abundances and the mass-to-charge ratios (m/z) of the ions were determined to confirm the identities of the experimentally produced McC variants.

[6] = Remaining amount by RP-HPLC after chymotrypsin treatment; type: in vitro ADME; settings: isolated enzyme chymotrypsin; chymotrypsin treated for 3 h; read-out RP-HPLC; Table S2
Description: as §3

[7] = test system: indicator bacteria; settings: second to seventh codons of mccA replaced; cited from earlier work
Excerpt: The heptapeptide precursor of McC, f-MRTGNAN, is encoded by the first gene in the mcc gene clusters, mccA [11]. Considering its protein nature, it is suitable for gene-based peptide engineering. Kazakov et al. first applied site-directed mutagenesis on the mccA gene, systematically replacing the second to seventh codons of mccA encoding 19 standard amino acids for a total of 114 mutations.

Compound: CSCC[C@H](NC=O)C(=O)N[C@@H](CCCNC(=N)N)C(=O)N[C@H](C(=O)NCC(=O)N[C@@H](CC(N)=O)C(=O)N[C@@H](C)C(=O)N[C@@H](CC(=O)O)C(=O)NP(=O)(OCCCN)OC[C@H]1O[C@@H](n2cnc3c(N)ncnc32)[C@H](O)[C@@H]1O)[C@@H](C)O (stereo partly shown) [McC, Microcin C7] (HELM PEPTIDE1{[O=C[*:2]].M.R.T.G.N.A.[NCCCOP(=O)(NC(=O)[C@H](CC(=O)O)N[*:1])OC[C@H]1O[C@@H](n2cnc3c(N)ncnc32)[C@H](O)[C@@H]1O]}$$$$V2.0)
- Diameters of the inhibition zones, Trypsin-Untreated Group, Yej^+rimL^− [1]: 29.12 mm
- Diameters of the inhibition zones, Trypsin-Untreated Group, K88 [2]: 20.25 mm
- MIC [3]: 1.56 µg/mL (≈ 1.33 µM)
- remaining at 3 h [4]: 89.3 ± 1.16%
- Retention Time [5]: 17.198 min
- remaining at 3 h [6]: 41.7 ± 1.07%

Compound: CC[C@H](C)[C@H](NC(=O)[C@H](CCSC)NC=O)C(=O)N[C@H](C(=O)NCC(=O)N[C@@H](CC(N)=O)C(=O)N[C@@H](C)C(=O)N[C@@H](CC(=O)O)C(=O)NP(=O)(OCCCN)OC[C@H]1O[C@@H](n2cnc3c(N)ncnc32)[C@H](O)[C@@H]1O)[C@@H](C)O (stereo partly shown) [R2I] (HELM PEPTIDE1{[O=C[*:2]].M.I.T.G.N.A.[NCCCOP(=O)(NC(=O)[C@H](CC(=O)O)N[*:1])OC[C@H]1O[C@@H](n2cnc3c(N)ncnc32)[C@H](O)[C@@H]1O]}$$$$V2.0)
- bacteriostatic activity after trypsin treatment, Yej^+rimL^− [1]: exhibited antibacterial effects
- Diameters of the inhibition zones, Trypsin-Untreated Group, Yej^+rimL^− [1]: 18.36 mm
- Diameters of the inhibition zones, Trypsin-Treated Group, Yej^+rimL^− [1]: 15.67 mm
- Diameters of the inhibition zones, Trypsin-Untreated Group, K88 [2]: 10.18 mm
- MIC [3]: 100 µg/mL (≈ 88.2 µM)
- remaining at 3 h [4]: 91.72 ± 0.87%
- Retention Time [5]: 18.166 min
- remaining at 3 h [6]: 41.3 ± 0.55%

Compound: CSCC[C@H](NC=O)C(=O)N[C@@H](CCC(N)=O)C(=O)N[C@H](C(=O)NCC(=O)N[C@@H](CC(N)=O)C(=O)N[C@@H](C)C(=O)N[C@@H](CC(=O)O)C(=O)NP(=O)(OCCCN)OC[C@H]1O[C@@H](n2cnc3c(N)ncnc32)[C@H](O)[C@@H]1O)[C@@H](C)O (stereo partly shown) [R2Q] (HELM PEPTIDE1{[O=C[*:2]].M.Q.T.G.N.A.[NCCCOP(=O)(NC(=O)[C@H](CC(=O)O)N[*:1])OC[C@H]1O[C@@H](n2cnc3c(N)ncnc32)[C@H](O)[C@@H]1O]}$$$$V2.0)
- bacteriostatic activity after trypsin treatment, Yej^+rimL^− [1]: exhibited antibacterial effects
- Diameters of the inhibition zones, Trypsin-Untreated Group, Yej^+rimL^− [1]: 19.45 mm
- Diameters of the inhibition zones, Trypsin-Treated Group, Yej^+rimL^− [1]: 19.38 mm
- antimicrobial activity after trypsin treatment, K88 [2]: retained their antimicrobial activity
- Diameters of the inhibition zones, Trypsin-Untreated Group, K88 [2]: 21.67 mm
- Diameters of the inhibition zones, Trypsin-Treated Group, K88 [2]: 14.56 mm
- MIC [3]: 25 µg/mL (≈ 21.8 µM)
- remaining at 3 h [4]: 87.6 ± 1.23%
- Retention Time [5]: 16.910 min
- remaining at 3 h [6]: 49.6 ± 1.19%

Compound: CSCC[C@H](NC=O)C(=O)N[C@H](C(=O)N[C@H](C(=O)NCC(=O)N[C@@H](CC(N)=O)C(=O)N[C@@H](C)C(=O)N[C@@H](CC(=O)O)C(=O)NP(=O)(OCCCN)OC[C@H]1O[C@@H](n2cnc3c(N)ncnc32)[C@H](O)[C@@H]1O)[C@@H](C)O)[C@@H](C)O (stereo partly shown) [R2T] (HELM PEPTIDE1{[O=C[*:2]].M.T.T.G.N.A.[NCCCOP(=O)(NC(=O)[C@H](CC(=O)O)N[*:1])OC[C@H]1O[C@@H](n2cnc3c(N)ncnc32)[C@H](O)[C@@H]1O]}$$$$V2.0)
- bacteriostatic activity after trypsin treatment, Yej^+rimL^− [1]: exhibited antibacterial effects
- Diameters of the inhibition zones, Trypsin-Untreated Group, Yej^+rimL^− [1]: 21.74 mm
- Diameters of the inhibition zones, Trypsin-Treated Group, Yej^+rimL^− [1]: 17.23 mm
- antimicrobial activity after trypsin treatment, K88 [2]: retained their antimicrobial activity
- Diameters of the inhibition zones, Trypsin-Untreated Group, K88 [2]: 15.27 mm
- Diameters of the inhibition zones, Trypsin-Treated Group, K88 [2]: 11.68 mm
- MIC [3]: 25 µg/mL (≈ 22.3 µM)
- remaining at 3 h [4]: 86.76 ± 0.77%
- Retention Time [5]: 17.418 min
- remaining at 3 h [6]: 46.7 ± 0.66%

Compound: CSCC[C@H](NC=O)C(=O)N[C@@H](Cc1ccc(O)cc1)C(=O)N[C@H](C(=O)NCC(=O)N[C@@H](CC(N)=O)C(=O)N[C@@H](C)C(=O)N[C@@H](CC(=O)O)C(=O)NP(=O)(OCCCN)OC[C@H]1O[C@@H](n2cnc3c(N)ncnc32)[C@H](O)[C@@H]1O)[C@@H](C)O (stereo partly shown) [R2Y] (HELM PEPTIDE1{[O=C[*:2]].M.Y.T.G.N.A.[NCCCOP(=O)(NC(=O)[C@H](CC(=O)O)N[*:1])OC[C@H]1O[C@@H](n2cnc3c(N)ncnc32)[C@H](O)[C@@H]1O]}$$$$V2.0)
- bacteriostatic activity after trypsin treatment, Yej^+rimL^− [1]: exhibited antibacterial effects
- Diameters of the inhibition zones, Trypsin-Untreated Group, Yej^+rimL^− [1]: 18.87 mm
- Diameters of the inhibition zones, Trypsin-Treated Group, Yej^+rimL^− [1]: 14.93 mm
- MIC [3]: >100 µg/mL
- remaining at 3 h [4]: 85.22 ± 0.72%
- Retention Time [5]: 18.591 min
- remaining at 3 h [6]: 45.4 ± 1.18%

Compound: A6F: McC substitution variant of Kazakov et al., site-directed mutagenesis of mccA (MRTGNFN; ends and bridges not checked; UniProt Q47505 1-7, looked up, variant A6F) [reference compound]
- antimicrobial activity of mccA substitution variants [7]: loss of antimicrobial activity

Compound: A6M: McC substitution variant of Kazakov et al., site-directed mutagenesis of mccA (MRTGNMN; ends and bridges not checked; UniProt Q47505 1-7, looked up, variant A6M) [reference compound]
- antimicrobial activity of mccA substitution variants [7]: loss of antimicrobial activity
